# Where a name gives a salt, the structure may show the parent alone.
# Legend:
# [1] = degradation during extrusion in the hot state; type: physicochemical; details: extrusion in the hot state at temperatures of from 95° C. to 110° C.
# Description: Moreover, and in surprising manner, it has been shown that the perindopril tert-butylamine salt, which is usually unstable to temperature or in association with certain acidic excipients, was not degraded, or only slightly degraded, during extrusion in the hot state carried out at temperatures of from 95° C. to 110° C. (less than 3% degradation).
# [2] = stability study over 6 months; type: physicochemical; details: variable temperature and relative humidity conditions, packaging of the aluminium/PVC blister type
smiles,measurement,setting,value
"CCC[C@H](N[C@@H](C)C(=O)N1[C@H](C(=O)O)C[C@@H]2CCCC[C@@H]21)C(=O)OCC [perindopril tert-butylamine salt, perindopril]",degradation,[1],less than 3%
same,stability,[2],excellent stability
